Patent US20090131702A1, “METHOD FOR THE PRODUCTION OF METAL CARBOXYLATES AND THE METAL AMINOATE OR METAL HYDROXY ANALOGUE METHIONATE DERIVATIVES THEREOF, AND USE OF SAME AS GROWTH PROMOTERS IN ANIMAL FEED” (NOREL, S.A., priority 2003, published 2009)
Read-outs that look alike come from different tables or passages of the source. Marks after values point to notes of the source that are not given here.

Columns and labels:
[1] = Zinc concentration in the liver of piglets (Example 11); format: in vivo; conditions: for Liver zinc / Ratio Zn in liver/Zn in diet: end of 21-day experiment, 220 ppm of zinc added to base diet
From the text: At the end of the experiment, one male and one female were selected at random from each batch to take a specimen of liver tissue and determine the zinc content.

[2] = piglets, 220 ppm of zinc added to base diet; for LW 28 d (live weight): day 28; for LW 42 d (live weight): day 42
Protocol: 300 piglets were used (cross of Large White and Landrace), 50% males and 50% females, weaned at 21 days of age and housed in 30 pens with 10 animals in each (5 males and 5 females).
Five experimental treatments were used, comprising the same basic diet, to which different sources of zinc are added:
The zinc dose was calculated taking into account the zinc content of the ingredients of the feed and the maximum permitted dose (250 ppm of zinc in the finished feed) in the case of treatments T-0 to T-2, and the dose with promoter effect (2000 ppm) in the case of treatment T-3.
The experimental period was 21 days.
The experimental model was a design of random blocks, with 6 replications per treatment. Each replication comprised a batch of 10 animals.
(§2) Control of production parameters was effected at the end of the experiment, recording the live weight, the daily growth and the consumption of feed.

[3] = Test of efficacy in piglets: production parameters, zinc glycinate / formate / complex (Example 14); format: in vivo; conditions: 21-50 days, 130 ppm of zinc added to base diet
From the text: The experimental period was 29 days.

[4] = broilers; for LW 21 d (live weight): day 21; for LW 42 d (live weight): day 42
[5] = broilers
Protocol: During the next 4 days, an investigation of the bioavailability of the copper was carried out. After fasting for 20 hours, the live weight per cage was recorded and the experimental feeds were supplied for 2 days, recording the consumption of feed.

[6] = Test in broilers: production parameters, zinc methioninate / formate / complex (Example 12); format: in vivo, broilers of the Ross strain; conditions: for MDC (mean daily consumption) / MDG (mean daily gain) / IC (index of conversion): 50 ppm of zinc added to base diet; for LW 21 d (live weight): day 21, 50 ppm of zinc added to base diet; for LW 42 d (live weight): day 42, 50 ppm of zinc added to base diet; for effect on production parameters (in words): 50 ppm of zinc, control T-0 = zinc sulfate
From the text: Four experimental treatments were used, comprising the same basic diet supplemented with different sources of zinc:
(§1) Control of production parameters was effected at 21 and 42 days of age, recording the live weight and the consumption of feed per batch.

[7] = broilers; for Zinc excreted / Zinc ingested / Bioavailability: 43 to 46 days of age, 50 ppm of zinc added to base diet; for zinc bioavailability (in words): 50 ppm of zinc; for Bioavailability: zinc
[8] = Test of efficacy in piglets: production parameters, copper glycinate / formate / complex (Example 15); format: in vivo; conditions: 21-42 days, 125 ppm of copper added to base diet
From the text: as §2

[9] = Test in broilers: production parameters, copper methioninate / formate / complex (Example 13); format: in vivo, broilers of the Ross strain; conditions: for IC (index of conversion) / MDC (mean daily consumption) / MDG (mean daily gain): 25 ppm of copper added to base diet; for LW 21 d (live weight): day 21, 25 ppm of copper added to base diet; for LW 42 d (live weight): day 42, 25 ppm of copper added to base diet
Protocol: Four experimental treatments were used, comprising the same basic diet supplemented with different sources of copper:
The dose of copper was calculated taking into account the copper content of the ingredients and the copper requirements in the case of treatments T-0 to T-3.
as §1

[10] = broilers; remark: listed apart in the source
[11] = broilers, 150 ppm of zinc added to base diet
From the text: 160 one-day old broilers of the Ross strain were used (without differentiation of sexes), housed in cages in groups of 10 animals.
Control of production parameters was effected at 21 days of age, recording the live weight and the consumption of feed per batch.

[12] = piglets, 21-41 days; 150 ppm of zinc added to base diet
Protocol: 24 piglets were used (Large White*Large White×Landrace), 50% males and 50% females, weaned at 21 days of age and housed in 4 pens with 6 animals in each (3 males and 3 females).
The zinc dose was calculated taking into account the zinc content of the ingredients and the maximum permitted dose (150 ppm) in all the treatments.
The experimental period was 20 days.
as §2

[13] = 0-21 days, 20 ppm of copper added to base diet
[14] = 0-42 days, 20 ppm of copper added to base diet
[15] = 21-42 days, 20 ppm of copper added to base diet
[16] = 20 ppm of copper added to base diet
[17] = 43 to 46 days of age, 20 ppm of copper added to base diet
[18] = 43 to 46 days of age, 25 ppm of copper added to base diet
[19] = 0-21 days, 150 ppm of copper added to base diet
[20] = 0-42 days, 150 ppm of copper added to base diet
[21] = 21-42 days, 150 ppm of copper added to base diet
[22] = 150 ppm of copper added to base diet
[23] = 43 to 46 days of age, 150 ppm of copper added to base diet

Zinc butyrate
ratio of zinc in the liver to zinc in the diet (in words) ([1]; 220 ppm of zinc): highest ratio
Liver zinc [1]: 56.3a μg/g
Ratio Zn in liver/Zn in diet [1]: 22.3bc
IC (index of conversion) ([2]; 21-28 days): 1.09 b
MDC (mean daily consumption) ([2]; 21-28 days): 286.3 g/day
MDG (mean daily gain) ([2]; 21-28 days): 262.9 ab g
IC (index of conversion) ([2]; 21-42 days): 1.45 b
MDC (mean daily consumption) ([2]; 21-42 days): 741.3 g/day
MDG (mean daily gain) ([2]; 21-42 days): 509.6 b g
LW 28 d (live weight) [2]: 8.99 B kg
LW 42 d (live weight) [2]: 14.15 b kg

[O]=[Zn] [zinc oxide]
liver zinc concentration (in words) ([1]; dose of 220 ppm): lowest
Liver zinc [1]: 47.63a μg/g
Ratio Zn in liver/Zn in diet [1]: 19.8ab
GLW 21-50 d (gain in live weight) [3]: 11.40 a kg
IC (index of conversion) [3]: 2.02 a
MDC (mean daily consumption) [3]: 795.3 g/day
MDG (mean daily gain) [3]: 393.1 a g
IC (index of conversion) ([2]; 21-28 days): 1.32 a
MDC (mean daily consumption) ([2]; 21-28 days): 321.7 g/day
MDG (mean daily gain) ([2]; 21-28 days): 244.5 A g
IC (index of conversion) ([2]; 21-42 days): 1.67 a
MDC (mean daily consumption) ([2]; 21-42 days): 795.3 g/day
MDG (mean daily gain) ([2]; 21-42 days): 475.3 a g
LW 28 d (live weight) [2]: 8.41 A kg
LW 42 d (live weight) [2]: 13.11 a kg

Copper butyrate
IC (index of conversion) [4, 13]: 1.35 b
MDC (mean daily consumption) [4, 13]: 48.9 g/day
MDG (mean daily gain) [4, 13]: 36.2 b g
IC (index of conversion) [4, 14]: 1.76 b
MDC (mean daily consumption) [4, 14]: 97.2 g/day
MDG (mean daily gain) [4, 14]: 55.1 b g
IC (index of conversion) [4, 15]: 1.94 b
MDC (mean daily consumption) [4, 15]: 147.2 g/day
MDG (mean daily gain) [4, 15]: 75.9 b g
LW 21 d (live weight) [4, 16]: 763 b g
LW 42 d (live weight) [4, 16]: 2358 b g
Copper excreted [5, 17]: 2.99^a mg
Copper ingested [5, 17]: 7.3^a mg
copper bioavailability (in words) ([5]; 20 ppm of copper): highest bioavailability
Bioavailability ([5]; copper, 43 to 46 days of age, 20 ppm of copper added to base diet): 59.09^b %

O=S(=O)([O-])[O-].[Zn+2] [zinc sulfate]
MDC (mean daily consumption) ([6]; 0-21 days): 47.3 g/day
MDG (mean daily gain) ([6]; 0-21 days): 33.6 a g
MDC (mean daily consumption) ([6]; 0-42 days): 101.7 g/day
MDG (mean daily gain) ([6]; 0-42 days): 53.5 a g
MDC (mean daily consumption) ([6]; 21-42 days): 156.3 g/day
MDG (mean daily gain) ([6]; 21-42 days): 73.6 a g
LW 21 d (live weight) [6]: 705 a g
LW 42 d (live weight) [6]: 2250 a g
Zinc excreted [7]: 8.34^a mg
Zinc ingested [7]: 12.4^a mg

NCC(=O)[O-].NCC(=O)[O-].[Cu+2] [copper glycinate]
GLW 21-42 d (gain in live weight) [8]: 7.25 b kg
IC (index of conversion) [8]: 1.91 b
MDC (mean daily consumption) [8]: 660.5 g/day
MDG (mean daily gain) [8]: 345.0 b g

copper methioninate
IC (index of conversion) ([9]; 0-21 days): 1.36 b
MDC (mean daily consumption) ([9]; 0-21 days): 47.1 g/day
MDG (mean daily gain) ([9]; 0-21 days): 34.7 b g
IC (index of conversion) ([9]; 0-42 days): 1.86 b
MDC (mean daily consumption) ([9]; 0-42 days): 100.5 g/day
MDG (mean daily gain) ([9]; 0-42 days): 54.0 b g
IC (index of conversion) ([9]; 21-42 days): 2.08 b
MDC (mean daily consumption) ([9]; 21-42 days): 154.0 g/day
MDG (mean daily gain) ([9]; 21-42 days): 73.8 b g
effect on production parameters (in words) ([9]; 25 ppm of copper, control T-0 = copper sulfate): same effect
LW 21 d (live weight) [9]: 750 b g
LW 42 d (live weight) [9]: 2300 b g
Copper excreted [10, 18]: 29.5^b mg
Copper ingested [10, 18]: 69.3^a mg
copper bioavailability (in words) ([10]; 25 ppm of copper): highest bioavailability
Bioavailability ([10]; copper, 43 to 46 days of age, 25 ppm of copper added to base diet): 42.6^b %

NCC(=O)[O-].NCC(=O)[O-].[Zn+2] [zinc glycinate]
GLW 21-50 d (gain in live weight) [3]: 12.75 b kg
IC (index of conversion) [3]: 1.68 b
MDC (mean daily consumption) [3]: 741.3 g/day
MDG (mean daily gain) [3]: 439.6 b g

O=S(=O)([O-])[O-].[Cu+2] [copper sulfate]
MDC (mean daily consumption) ([9]; 0-21 days): 45.3 g/day
MDG (mean daily gain) ([9]; 0-21 days): 31.6 a g
MDC (mean daily consumption) ([9]; 0-42 days): 102.7 g/day
MDG (mean daily gain) ([9]; 0-42 days): 51.6 a g
MDC (mean daily consumption) ([9]; 21-42 days): 160.1 g/day
MDG (mean daily gain) ([9]; 21-42 days): 71.6 a g
LW 21 d (live weight) [9]: 695 a g
LW 42 d (live weight) [9]: 2200 a g
GLW 21-42 d (gain in live weight) [8]: 6.5 a kg
MDC (mean daily consumption) [8]: 650.5 g/day
MDG (mean daily gain) [8]: 309.5 a g
MDC (mean daily consumption) [4, 13]: 48.9 g/day
MDG (mean daily gain) [4, 13]: 34.2 a g
MDC (mean daily consumption) [4, 19]: 49.7 g/day
MDG (mean daily gain) [4, 19]: 35.9 b g
MDC (mean daily consumption) [4, 14]: 98.2 g/day
MDG (mean daily gain) [4, 14]: 50.6 a g
MDC (mean daily consumption) [4, 20]: 99.5 g/day
MDG (mean daily gain) [4, 20]: 55.2 b g
MDC (mean daily consumption) [4, 15]: 149.3 g/day
MDG (mean daily gain) [4, 15]: 69.2 a g
MDC (mean daily consumption) [4, 21]: 154.2 g/day
MDG (mean daily gain) [4, 21]: 76.7 b g
LW 21 d (live weight) [4, 16]: 716 a g
LW 21 d (live weight) [4, 22]: 756 b g
LW 42 d (live weight) [4, 16]: 2172 a g
LW 42 d (live weight) [4, 22]: 2362 b g
Copper excreted [5, 17]: 4.08^a mg
Copper ingested [5, 17]: 7.3^a mg
Copper excreted [5, 23]: 397.3^b mg
Copper ingested [5, 23]: 652.4^b mg
Copper excreted [10, 18]: 20.4^a mg
Copper ingested [10, 18]: 67.98^a mg

zinc methioninate
IC (index of conversion) ([6]; 0-21 days): 1.35 b
MDC (mean daily consumption) ([6]; 0-21 days): 48.1 g/day
MDG (mean daily gain) ([6]; 0-21 days): 35.7 b g
IC (index of conversion) ([6]; 0-42 days): 1.82 b
MDC (mean daily consumption) ([6]; 0-42 days): 101.7 g/day
MDG (mean daily gain) ([6]; 0-42 days): 55.7 b g
IC (index of conversion) ([6]; 21-42 days): 2.05 b
MDC (mean daily consumption) ([6]; 21-42 days): 155.2 g/day
MDG (mean daily gain) ([6]; 21-42 days): 75.7 b g
effect on production parameters (in words) [6]: same effect
LW 21 d (live weight) [6]: 750 b g
LW 42 d (live weight) [6]: 2340 b g
Zinc excreted [7]: 7.35^b mg
Zinc ingested [7]: 12.6^a mg
zinc bioavailability (in words) [7]: highest bioavailability
Bioavailability [7]: 42.6^b %

O=C[O-].O=C[O-].[Zn+2] [zinc formate, Zinc formate]
Liver zinc [1]: 59.21a μg/g
MDC (mean daily consumption) ([6]; 0-21 days): 48.3 g/day
MDG (mean daily gain) ([6]; 0-21 days): 35.2 b g
MDC (mean daily consumption) ([6]; 0-42 days): 100.4 g/day
MDG (mean daily gain) ([6]; 0-42 days): 55.0 b g
MDC (mean daily consumption) ([6]; 21-42 days): 152.5 g/day
MDG (mean daily gain) ([6]; 21-42 days): 74.8 b g
effect on production parameters (in words) [6]: same effect
LW 21 d (live weight) [6]: 740 b g
LW 42 d (live weight) [6]: 2310 b g
GLW 21-50 d (gain in live weight) [3]: 12.50 b kg
MDC (mean daily consumption) [3]: 752.3 g/day
MDG (mean daily gain) [3]: 431.0 b g
MDC (mean daily consumption) ([2]; 21-28 days): 312.3 g/day
MDG (mean daily gain) ([2]; 21-28 days): 268.6 B g
MDC (mean daily consumption) ([2]; 21-42 days): 752.3 g/day
MDG (mean daily gain) ([2]; 21-42 days): 512.6 b g
LW 28 d (live weight) [2]: 8.76 ab kg
LW 42 d (live weight) [2]: 14.30 b kg
MDC (mean daily consumption) ([11]; 0-21 days): 47.5 g/day
MDG (mean daily gain) ([11]; 0-21 days): 37.6 b g
LW 21 d (live weight) ([11]; day 21): 790 b g
GLW 21-41 d (gain in live weight) [12]: 8.00 b kg
MDC (mean daily consumption) [12]: 655.0 g/day
MDG (mean daily gain) [12]: 400.0 b g
Zinc excreted [7]: 7.20^b mg
Zinc ingested [7]: 13.3^a mg
zinc bioavailability (in words) [7]: highest bioavailability
Bioavailability [7]: 45.8^b %
